# System: Hyaluronate lyase
# Assay: Filler product injected into rat dorsal skin
# Format: in vivo
# Details: 1-7 days, FIG. 6e
# Experimental: FIG. 6e represents effects on residence times of filler products when the filler product containing hyaluronate lyase and the peptide (SEQ ID NO:2) is injected to rat dorsal skin. The effects were determined at intervals of 1-7 days.
# Hyaluronate lyase was artificially put into a commercial filler product at a concentration of 100 ug to induce degradation of hyaluronic acids, and then 200 ug peptides were treated. […] An assay using GPC column and an in vivo experiment using rats are performed. Control group was treated with hyaluronate lyase, and treatment group was co-treated hyaluronate lyase and each peptide. When the filler product was injected into rat skin, the degradation of hyaluronic acids inside the filler was inhibited by the treatment of peptides (FIG. 6e).
sequence,measurement,setting,value
MIPCYISSP (CG-Seperin) [SEQ ID NO:2],degradation of hyaluronic acids inside the filler injected into rat skin,filler with hyaluronate lyase and peptide,hyaluronic acids degradation effect is excellent
same,residence times of filler products,versus only filler products,stayed for longer period

# From US9303064B2, “Peptide inhibiting matrix metalloproteanases activity and use thereof” (CAREGEN CO., LTD., priority 2011, dated 2016)
